# Measured values taken from patent US6737383B1, “Herbicidal oxadiazolidines” (priority 1999, dated 2004).
# How the values were obtained:
# rape = assay: Test B pre/postemergence rape; format: in vivo, Brassica napus
# Summary of the method: (§1)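 Test chemicals in a non-phytotoxic solvent mixture with surfactant were sprayed preemergence onto planted seeds and postemergence onto plants 2 to 18 cm tall (1- to 4-leaf stage). After twelve to sixteen days in a greenhouse, injury was visually rated against untreated controls from 0 (no effect) to 10 (complete control).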
# purple nutsedge = assay: Test B pre/postemergence purple nutsedge; format: in vivo, Cyperus rotundus
# Summary of the method: as §1
# smallflower flatsedge = assay: Test B flood test smallflower flatsedge; format: in vivo, Cyperus difformis
# Summary of the method: (§2)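 Each value is a visual injury score relative to controls, with 10 meaning complete control and 0 no effect. Evaluation took place twelve to sixteen days after the 2-leaf-stage plants were treated and kept in the greenhouse.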
# cocklebur = assay: Test B pre/postemergence cocklebur; format: in vivo, Xanthium strumarium
# Summary of the method: as §1
# wheat = assay: Test B pre/postemergence wheat; format: in vivo, Triticum aestivum
# Summary of the method: as §1
# surinam grass = assay: Test B pre/postemergence surinam grass; format: in vivo, Brachiaria decumbens
# Summary of the method: as §1
# morningglory = assay: Test B pre/postemergence morningglory; format: in vivo, Ipomoea hederacea
# Summary of the method: as §1
# sugar beet = assay: Test B pre/postemergence sugar beet; format: in vivo, Beta vulgaris
# Summary of the method: as §1
# velvetleaf = assay: Test B pre/postemergence velvetleaf; format: in vivo, Abutilon theophrasti
# Summary of the method: as §1
# pigweed = assay: Test B pre/postemergence pigweed; format: in vivo, Amaranthus retroflexus
# Summary of the method: as §1
# wild oat = assay: Test B pre/postemergence wild oat; format: in vivo, Avena fatua
# Summary of the method: as §1
# duck salad = assay: Test B flood test duck salad; format: in vivo, Heteranthera limosa
# Summary of the method: as §2
# blackgrass = assay: Test B pre/postemergence blackgrass; format: in vivo, Alopecurus myosuroides
# Summary of the method: as §1
# corn = assay: Test B pre/postemergence corn; format: in vivo, Zea mays
# Summary of the method: as §1
# crabgrass = assay: Test B pre/postemergence crabgrass; format: in vivo, Digitaria sanguinalis
# Summary of the method: as §1
# [1] = Postemergence, Rate 250 g/ha, scale 0 to 10
# [2] = Postemergence, Rate 500 g/ha, scale of 0 to 10 where 0 is no effect and 10 is complete control
# [3] = Preemergence, Rate 62 g/ha, scale 0 to 10 (0 no effect, 10 complete control)
# [4] = Preemergence, Rate 125 g/ha, scale of 0 to 10 where 0 is no effect and 10 is complete control
# [5] = Preemergence, Rate 250 g/ha, scale 0 to 10, 0 is no effect, 10 is complete control
# [6] = Preemergence, Rate 500 g/ha, scale 0 to 10, 0 is no effect, 10 is complete control
# [7] = Rate 125 g/ha, Postemergence, scale 0 to 10, 0 is no effect, 10 is complete control
# [8] = Postemergence block (flood test species), Rate 250 g/ha, scale 0 to 10
# [9] = Postemergence section (flood test species), Rate 500 g/ha, scale of 0 to 10 where 0 is no effect and 10 is complete control
# [10] = Rate 125 g/ha, Postemergence section (flood test species), scale 0 to 10, 0 is no effect, 10 is complete control
# [11] = Rate 62 g/ha, Postemergence, scale of 0 to 10 where 0 is no effect and 10 is complete control
compound,measurement,setting,value
CCN(C(=O)n1oc(=O)n(C2CCCCCC2)c1=O)C1CCCCC1 [Compound 429],Rape plant response rating,rape; [1],0
same,Rape plant response rating,rape; [2],0
same,"Plant response rating, Rape",rape; [3],0
same,"Plant response rating, Rape",rape; [4],0
same,Rape plant response rating,rape; [5],0
same,Rape plant response rating,rape; [6],0
same,Rape plant response rating,rape; [7],0
same,Nutsedge plant response rating,purple nutsedge; [1],0
same,Nutsedge plant response rating,purple nutsedge; [2],0
same,"Plant response rating, Nutsedge",purple nutsedge; [3],0
same,"Plant response rating, Nutsedge",purple nutsedge; [4],0
same,Nutsedge plant response rating,purple nutsedge; [5],0
same,Nutsedge plant response rating,purple nutsedge; [6],0
same,Nutsedge plant response rating,purple nutsedge; [7],0
same,S. Flatsedge plant response rating,smallflower flatsedge; [8],3
same,S. Flatsedge plant response rating,smallflower flatsedge; [9],9
same,S. Flatsedge plant response rating,smallflower flatsedge; [10],0
same,Cocklebur plant response rating,cocklebur; [1],0
same,Cocklebur plant response rating,cocklebur; [2],0
same,"Plant response rating, Cocklebur",cocklebur; [3],0
same,"Plant response rating, Cocklebur",cocklebur; [4],0
same,Cocklebur plant response rating,cocklebur; [5],0
same,Cocklebur plant response rating,cocklebur; [6],0
same,Cocklebur plant response rating,cocklebur; [11],0
same,Cocklebur plant response rating,cocklebur; [7],0
same,Wheat plant response rating,wheat; [1],0
same,Wheat plant response rating,wheat; [2],0
same,"Plant response rating, Wheat",wheat; [3],0
same,"Plant response rating, Wheat",wheat; [4],0
same,Wheat plant response rating,wheat; [5],0
same,Wheat plant response rating,wheat; [6],0
same,Wheat plant response rating,wheat; [7],0
same,B. signalgrass plant response rating,"surinam grass; Postemergence, Rate 250 g/ha, scale 0 to 10, 0 no effect, 10 complete control",0
same,B. signalgrass plant response rating,surinam grass; [2],0
same,"Plant response rating, B. signalgrass",surinam grass; [3],0
same,"Plant response rating, B. signalgrass",surinam grass; [4],0
same,B. signalgrass plant response rating,surinam grass; [5],0
same,B. signalgrass plant response rating,surinam grass; [6],4
same,B. signalgrass plant response rating,surinam grass; [11],0
same,B. signalgrass plant response rating,surinam grass; [7],0
same,Morningglory plant response rating,morningglory; [1],2
same,Morningglory plant response rating,morningglory; [2],3
same,"Plant response rating, Morningglory",morningglory; [3],0
same,"Plant response rating, Morningglory",morningglory; [4],0
same,Morningglory plant response rating,morningglory; [5],0
same,Morningglory plant response rating,morningglory; [6],0
same,Morningglory plant response rating,morningglory; [7],1
same,Sugarbeets plant response rating,sugar beet; [1],0
same,Sugarbeets plant response rating,sugar beet; [2],0
same,"Plant response rating, Sugarbeets",sugar beet; [3],0
same,"Plant response rating, Sugarbeets",sugar beet; [4],0
same,Sugarbeets plant response rating,sugar beet; [5],0
same,Sugarbeets plant response rating,sugar beet; [6],0
same,Sugarbeets plant response rating,sugar beet; [7],0
same,Velvetleaf plant response rating,velvetleaf; [1],2
same,Velvetleaf plant response rating,velvetleaf; [2],2
same,"Plant response rating, Velvetleaf",velvetleaf; [3],0
same,"Plant response rating, Velvetleaf",velvetleaf; [4],0
same,Velvetleaf plant response rating,velvetleaf; [5],0
same,Velvetleaf plant response rating,velvetleaf; [6],0
same,Velvetleaf plant response rating,velvetleaf; [7],0
same,Redroot pigweed plant response rating,pigweed; [1],0
same,Redroot pigweed plant response rating,pigweed; [2],0
same,"Plant response rating, Redroot pigweed",pigweed; [3],0
same,"Plant response rating, Redroot pigweed",pigweed; [4],0
same,Redroot pigweed plant response rating,pigweed; [5],0
same,Redroot pigweed plant response rating,pigweed; [6],0
same,Redroot pigweed plant response rating,pigweed; [7],0
same,Wild oats plant response rating,wild oat; [1],0
same,Wild oats plant response rating,wild oat; [2],0
same,"Plant response rating, Wild oats",wild oat; [3],0
same,"Plant response rating, Wild oats",wild oat; [4],0
same,Wild oats plant response rating,wild oat; [5],0
same,Wild oats plant response rating,wild oat; [6],0
same,Wild oats plant response rating,wild oat; [7],0
same,Ducksalad plant response rating,duck salad; [8],6
same,Ducksalad plant response rating,duck salad; [9],6
same,Ducksalad plant response rating,"duck salad; Rate 62 g/ha, Postemergence (flood test species), scale of 0 to 10 where 0 is no effect and 10 is complete control",0
same,Ducksalad plant response rating,duck salad; [10],2
same,Blackgrass plant response rating,blackgrass; [1],3
same,Blackgrass plant response rating,blackgrass; [2],3
same,"Plant response rating, Blackgrass",blackgrass; [3],0
same,"Plant response rating, Blackgrass",blackgrass; [4],0
same,Blackgrass plant response rating,blackgrass; [5],0
same,Blackgrass plant response rating,blackgrass; [6],3
same,Blackgrass plant response rating,blackgrass; [11],0
same,Blackgrass plant response rating,blackgrass; [7],2
same,Corn plant response rating,corn; [1],0
same,Corn plant response rating,corn; [2],0
same,"Plant response rating, Corn",corn; [3],0
same,"Plant response rating, Corn",corn; [4],0
same,Corn plant response rating,corn; [5],0
same,Corn plant response rating,corn; [6],0
same,Corn plant response rating,corn; [11],0
same,Corn plant response rating,corn; [7],0
same,Crabgrass plant response rating,crabgrass; [1],2
same,Crabgrass plant response rating,crabgrass; [2],3
same,"Plant response rating, Crabgrass",crabgrass; [3],7
same,"Plant response rating, Crabgrass",crabgrass; [4],10
same,Crabgrass plant response rating,crabgrass; [5],10
same,Crabgrass plant response rating,crabgrass; [6],10
same,Crabgrass plant response rating,crabgrass; [11],0
same,Crabgrass plant response rating,crabgrass; [7],1
